Measured values as given in patent publication US12161763B2, “Formulation and method for increasing oral bioavailability of drugs” (Yissum Research Development Company of the Hebrew …, priority 2012, dated 2024).
Values joined by “and” are separate entries in the source; they are usually repeats but may differ in a detail not shown here. Equal entries are not always repeated. Structures can show the parent of a compound that is named as a salt.

Assays:
[1] = Absorption enhancer pro-nano-liposphere development: dissolution in pre-concentrate and precipitation on dilution with water; format: physicochemical; conditions: for precipitation of the absorption enhancer upon dilution with water phase: curcumin 1% and 2%, resveratrol, piperine 2%
Experimental: The development of each of the formulations, in terms of a selection of the different components, was conducted by the following method. A combination of certain components was used as a reference starting point (as per Table 16). The choice of these certain triglyceride, organic amphiphilic co-solvent and the combination of surfactants in the detailed portions in Table 16 was based on the inventors' previous experience with various lipophilic drugs. Thus, an absorption enhancer was added to this specified prototype formulation to form a pre-concentrate.

Male Wistar rats = experiment: AM pharmacodynamic study: heart rate and IBI by radiotelemetry; format: in vivo; conditions: 12.5 mg/kg AM PO
Experimental: The deferential effect of AM on heart rate was used as a pharmacodynamic marker for assessment of AM pharmacological effect following oral administration.
Male Wistar rats (Harlan, Israel) weighing 300-350 g were kept under a 12 h light/dark cycle with free access to water and food (standard rat chow) Animals were anesthetized for the period of surgery by intraperitoneal injection of 1 mL/kg of ketamine-xylazine solution (90/10%, respectively).
An ECG transmitter (TA11CA-F40, Data Sciences International Inc., St. Paul, MN) was implanted subcutaneously over the scapula with the leads in a Lead 2 configuration by tunneling subcutaneously from the dorsal incision using a trocar. The negative lead was placed in the area of the right shoulder and the positive lead was placed immediately to the left of the xyphoid space and caudal to the rib cage.
The signal from the transmitters was received by two RLA 2000 receivers and transmitted via a Data Exchange Matrix to a Dataquest PCI card. The data were recorded continuously during the whole experiment at 1000 Hz rate with no filter cutoff and full scale at 10 mV.
The collected data were interpreted by Dataquest A.R.T program. The IBI (R-R duration, sec) and HR (bpm) were calculated in average values of each 10 min of the recording.
At the beginning the baseline were recorded at least for 120 min. After establishing stable recording the rats were treated by oral gavage. During the treatment the data was collected and afterwards extracted in further analysis.
Two groups of three rats received the treatment in a cross over manner, meaning each rat received each treatment once. The treatments were as follows:
Blank nano-lipospheres not containing AM was freshly prepared as described above and was administered by oral gavage. […] .
In order to inspect separately the effect of each delivery method, we first calculated the mean baseline IBI duration throughout 60 min prior the administration. The drug was administered at t=60 min Post administration the data was calculated throughout 180 min. The net change was calculated as the percentage of the change for each drug administration mode relative to the baseline recording. The changes from base-line in two parameters: IBI and HR were analyzed in two points: 90 min. post administration (mid phase) and 180 min post administration (end phase) (Tables 9A-B and 10A-B, respectively).

[2] = Compatibility of BCS class II and IV drugs with the piperine-PNL pre-concentrate; format: physicochemical
From the text: In order to determine the compatibility of the developed PNL delivery system with various lipophilic drugs, we have tested the ability of the piperine-PNL to dissolve various BCS class II and IV drugs.

[3] = CBD nano lipospheres relative oral bioavailability study; format: in vivo; conditions: male, Wistar, rat, plasma; PO 15 mg/kg CBD, rats
Experimental: The obtained CBD concentration was 3 mg/mL. […] The control group received (15 mg/kg) CBD solution in propylene glycol/EthOH/water 30/30/40 respectively (1 mg/mL) (n=6).

[4] = CBD relative oral bioavailability: CBD, CBD-PNL and CBD-PNL with absorption enhancers; conditions: male, Wistar, rat, in vivo; PO CBD 15 mg/kg; Piperine 10 mg/kg, rats; mean ± S.E.M.
Experimental: The obtained CBD and piperine concentrations were 3 mg/mL and 2 mg/ml, respectively. […] The control groups received (15 mg/kg) CBD solution in propylene glycol/EthOH/water 30/30/40 respectively (1 mg/mL) (n=6) or CBD-PNL ((15 mg/kg of CBD).

[5] = Tacrolimus oral bioavailability study; format: in vivo, Male Wistar rats
CYP3A4 = conditions: 120 min incubation in isolated rat microsomes
[6] = Talinolol relative oral bioavailability study; format: in vivo; conditions: male, Wistar, rat, plasma; PO 4 mg/kg talinolol, rats
Experimental: The obtained talinolol concentration was 1 mg/mL. […] The control group received 4 mg/kg talinolol dissolved in PEG400:water:ethanol 25:60:15 to obtain 1 mg/mL concentration (n=6).

[7] = 90 min post administration, HCl
[8] = 180 min post administration, HCl

SMILES: COc1cc(/C=C/C(=O)CC(=O)/C=C/c2ccc(O)c(OC)c2)ccc1O [curcumin]
- precipitation of the absorption enhancer upon dilution with water phase [1]: precipitation

SMILES: CCCCc1oc2ccccc2c1C(=O)c1cc(I)c(OCCN(CC)CC)c(I)c1 [AM, Amiodarone HCl]
- HEART RATE (BPM) MID PHASE (Male Wistar rats; 90 min post administration): 452.916 ± 20.01 BPM
- IBI (sec) MID PHASE (Male Wistar rats; 90 min post administration): 0.1435 ± 0.008 s
- HEART RATE CHANGE % (percentage from baseline), mid phase (Male Wistar rats; [7]): 131.28% and 131.28 (*) %
- IBI CHANGE % (percentage from baseline), mid phase (Male Wistar rats; [7]): 88.86% and 88.86 (*) %
- IBI (sec) END PHASE (Male Wistar rats; 180 min post administration): 0.143 ± 0.007 s
- HEART RATE (BPM) END PHASE (Male Wistar rats; [8]): 443.071 ± 11.06 BPM and 443.07 ± 11.06 BPM
- HEART RATE CHANGE % (percentage from baseline), end phase (Male Wistar rats; [8]): 128.43% and 128.43 (*) %
- IBI CHANGE % (percentage from baseline), end phase (Male Wistar rats; [8]): 89.79% and 89.79 (*) %
- heart rate following administration (Male Wistar rats; phase not given): 452.916±20.01 BPM
- mean IBI following administration (Male Wistar rats; phase not given): 0.143 ± 0.0074 s

SMILES: C[C@@H]1[C@H](O)[C@@H](C)/C=C/C=C/C=C/C=C/C=C/C=C/C=C/[C@H](O[C@@H]2O[C@H](C)[C@@H](O)[C@H](N)[C@@H]2O)C[C@@H]2O[C@](O)(C[C@@H](O)C[C@@H](O)[C@H](O)CC[C@@H](O)C[C@@H](O)CC(=O)O[C@H]1C)C[C@H](O)[C@H]2C(=O)O [Amphotericin B]
- compatibility with the pre-concentrate [2]: incompatible

SMILES: Oc1ccc(C=Cc2cc(O)cc(O)c2)cc1 [resveratrol]
- dissolution of the absorption enhancer in the pre-concentrate / appearance of pre-concentrate [1]: homogeneous and visually clear pre-concentrate
- precipitation of the absorption enhancer upon dilution with water phase [1]: No precipitation

SMILES: C=C(C)[C@@H]1CCC(C)=C[C@H]1c1c(O)cc(CCCCC)cc1O [CBD, Cannabidiol]
- AUC [3]: 259 ng·h/mL
- Cmax [3]: 105 ± 103 ng/mL
- AUC [4]: 90 ± 21 ng·h/mL
- Cmax [4]: 39 ± 8 ng/mL

SMILES: C=CC[C@@H]1/C=C(\C)C[C@H](C)C[C@H](OC)[C@H]2O[C@@](O)(C(=O)C(=O)N3CCCC[C@H]3C(=O)O[C@H](/C(C)=C/[C@@H]3CC[C@@H](O)[C@H](OC)C3)[C@H](C)[C@@H](O)CC1=O)[C@H](C)C[C@@H]2OC [tacrolimus]
- Coefficient of variation (% CV) of plasma tacrolimus concentrations ([5]; 0.25 h after PO 1 mg/kg): 95.1%
- Coefficient of variation (% CV) of plasma tacrolimus concentrations ([5]; 0.5 h after PO 1 mg/kg): 90.8%
- Coefficient of variation (% CV) of plasma tacrolimus concentrations ([5]; 0.75 h after PO 1 mg/kg): 73.2%
- Coefficient of variation (% CV) of plasma tacrolimus concentrations ([5]; 1 h after PO 1 mg/kg): 83.5%
- Coefficient of variation (% CV) of plasma tacrolimus concentrations ([5]; 2 h after PO 1 mg/kg): 103.5%

SMILES: C[C@]12CC[C@H]3[C@@H](CCC4=CC(=O)CC[C@@]43C)[C@@H]1CC[C@@H]2O [testosterone]
- testosterone remaining (CYP3A4): 75.39±8.82%

SMILES: CC(C)(C)NCC(O)COc1ccc(NC(=O)NC2CCCCC2)cc1 (stereo not drawn) [Talinolol, talinolol]
- AUC [6]: 11.9 ng·h/mL
- Cmax [6]: 5.55 ± 1.65 ng/mL
- half-life [6]: 1.15 ± 0.19 h
